Molecular target: T1, hROMK1 (Kir1.1) (Homo sapiens, UniProt P48048)
T1 construct: expressed in transfected cells
T1 sequence (P48048 1-391): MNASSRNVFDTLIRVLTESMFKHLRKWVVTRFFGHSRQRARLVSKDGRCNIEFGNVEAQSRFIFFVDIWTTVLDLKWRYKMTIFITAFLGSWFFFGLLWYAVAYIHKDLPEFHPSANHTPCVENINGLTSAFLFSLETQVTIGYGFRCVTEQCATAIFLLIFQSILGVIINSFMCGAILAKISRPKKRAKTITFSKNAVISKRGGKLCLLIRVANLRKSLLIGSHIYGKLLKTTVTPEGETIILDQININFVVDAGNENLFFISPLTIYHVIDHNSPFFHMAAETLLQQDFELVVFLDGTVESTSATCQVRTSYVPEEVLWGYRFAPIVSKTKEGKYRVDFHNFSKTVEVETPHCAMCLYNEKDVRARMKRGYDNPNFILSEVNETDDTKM
Experiment: 86Rb+ Efflux Assay
Format: cell-based
Conditions: CHO-DHFR- cells stably expressing hROMK1; 35 min incubation
Description: Several assays may be used to measure functional inhibition of the ROMK channel by compounds of the instant invention. One assay that was used to test the activity of compounds in the Examples is the functional ^86Rb^+ efflux assay described below, that measures the ability of ROMK to permeate ^86Rb^+, in the absence or presence of test compound. Under control conditions, cells loaded with ^86Rb^+ and incubated in Rb^+-free medium display a time-dependent efflux of the isotope, the rate of which depends on number of functional channels. When cells are incubated in the presence of a channel inhibitor, efflux of ^86Rb^+ is prevented in a concentration-dependent manner, and IC50 values of inhibition by compounds can be accurately determined. This assay has been established with cell lines expressing either human, rat or dog ROMK channels, and can operate in 96- or 384-well format. Importantly, the human, rat, and dog ^86Rb^+ efflux assays can be carried out in the presence of up to 100% serum allowing, therefore, an accurate estimation of the effect of protein binding on the inhibitory activity of compounds of interest. Another ROMK functional assay used to test the activity of compounds in the Examples (described below) makes use of the ability of thallium to permeate through open ROMK channels and increase the fluorescence of a dye previously loaded into the cells. Under control conditions, cells loaded with dye and exposed to thallium-containing medium display a time-dependent increase in fluorescence, the rate of which depends on number of functional channels. When cells are incubated in the presence of a channel inhibitor, the increase in fluorescence is attenuated in a concentration-dependent manner, and IC50 values of inhibition by compounds can be accurately determined. This assay has been established with cell lines expressing either human, or rat ROMK channels, and operates in 384-well format.
CHO-DHFR-cells stably expressing hROMK1 (Kir1.1) are grown at 37° C. in a 10% CO2 humidified incubator in Iscove's Modified Dulbecco's Medium (Gibco 12440) supplemented with HT Supplement, Penicillin/Streptomycin/Glutamine, G418 (500 μg/ml) and 10% FBS. Cells are seeded in Sterile and Tissue Culture Treated Packard CulturPlate White Opaque Microplates at a concentration of 5.0E5-7.0E5 cells/ml-PerkinElmer 6005680 (96-well); Corning 3707 (384 well) in complete media containing 1.5 μCi/ml Rubidium-86. Cells are incubated in 37° C.-10% CO2 incubator overnight. On the day of the experiment, the media is removed and cells are washed with low K assay buffer. ^86Rb^+ efflux is initiated after addition of assay buffer±test compound followed by 35 min incubation at room temperature. ROMK-sensitive component of efflux is defined in the presence of 10 mM BaCl2. Assay buffer is removed and transferred to a plate and cells are solubilized in the presence of SDS. Radioactivity associated with assay and cell plate is determined.
• 1. Remove cell media and wash cells with low K assay buffer (126.9 mM NaCl, 4.6 mM KCl, 2 mM CaCl2, 1 mM MgCl2, 10 mM Hepes/NaOH; pH 7.4) • 200 μl for 96-well plate; 70 μl for 384-well plate • 2. Add assay buffer (121.5 mM NaCl, 10 mM KCl, 2 mM CaCl2, 1 mM MgCl2, 10 mM Hepes/NaOH; pH 7.4)±test compound to cells • 100 μl for 96-well plate; 50 μl for 384-well plate • 3. Incubate at ambient temperature (22-24° C.) for 35 min • 4. Remove assay buffer add it to a 96- or 384-well plate containing Microscint-20 • 96-well Plate: 100 μl buffer, 170 μl MicroScint 20 (for TopCount) • 384-well plate: 20 μl buffer, 50 μl Optiphiase (for MicroLux) • 5. Completely remove remaining assay buffer from cell plate • 6. Solubilize cells with 1% SDS; than add MicroScint or Optiphase • 96-well Plate: 30 μl SDS, 170 μl MicroScint 20 (for TopCount) • 384-well plate: 20 μl SDS, 50 μl Optiphiase (for MicroLux) • 7. Seal both cell and supernatant plates and count Data Calculation— […]

| SMILES | IC50 [nM] |
| --- | --- |
| COc1cc([N+](=O)[O-])ccc1CCN1CCN(C2CCc3cc(C#N)ccc3C2)C(=O)C1 (racemic) [Example 9, 6-{4-[2-(2-Methoxy-4-nitrophenyl)ethyl]-2-oxopiperazin-1-yl}-5,6,7,8-tetrahydronaphthalene-2-carbonitrile] | 80 |
| COc1cc([N+](=O)[O-])ccc1CCN1CCN(CCc2ccc([N+](=O)[O-])cc2)C(=O)C1 [Example 11, 4-[2-(2-Methoxy-4-nitrophenyl)ethyl]-1-[2-(4-nitrophenyl)ethyl]piperazin-2-one] | 140 |
| N#Cc1ccc(CCN2CCN(C3CCc4cc(C#N)ccc4C3)C(=O)C2)cc1 (racemic) [Example 25, 6-{4-[2-(4-Cyanophenyl)ethyl]-2-oxopiperazin-1-yl}-5,6,7,8-tetrahydronaphthalene-2-carbonitrile] | 240 |
| N#Cc1ccc2c(c1)CCC(N1CCN(C(=O)C3CCc4cc(-n5cnnn5)ccc43)CC1=O)C2 (stereo not drawn) [Example 57, 6-(2-Oxo-4-{[5-(1H-tetrazol-1-yl)-2,3-dihydro-1H-inden-1-yl]carbonyl}piperazin-1-yl)-5,6,7,8-tetrahydronaphthalene-2-carbonitrile] | 800 |
| O=C1CN(CCc2ccc([N+](=O)[O-])c(C(F)(F)F)c2)CCN1CCc1ccc([N+](=O)[O-])cc1 [Example 3, 1-[2-(4-Nitrophenyl)ethyl]-4-{2-[4-nitro-3-(trifluoromethyl)phenyl]ethyl}piperazin-2-one] | 740 |
| N#Cc1ccc2c(c1)CCC(N1CCN(CCc3ccc4c(=O)occc4c3)CC1=O)C2 (racemic) [Example 43, 6-{2-Oxo-4-[2-(1-oxo-1H-isochromen-6-yl)ethyl]piperazin-1-yl}-5,6,7,8-tetrahydronaphthalene-2-carbonitrile] | 210 |
| N#Cc1cccc2c1CCCC2CN1CCN(CCc2ccc3c(c2)COC3=O)CC1=O (racemic) [Example 33, 5-((2-oxo-4-(2-(1-oxo-1,3-dihydroisobenzofuran-5-yl)ethyl)piperazin-1-yl)methyl)-5,6,7,8-tetrahydronaphthalene-1-carbonitrile] | 150 |
| N#Cc1ccc2c(c1)CCC(N1CCN(CCc3ccc([N+](=O)[O-])cc3)CC1=O)C2 (racemic) [Example 23, 6-{4-[2-(4-Nitrophenyl)ethyl]-2-oxopiperazin-1-yl}-5,6,7,8-tetrahydronaphthalene-2-carbonitrile] | 60 |
| COc1cc([N+](=O)[O-])ccc1CCN1CCN(CCc2ccc3nonc3c2)C(=O)C1 [Example 10, 1-[2-(2,1,3-Benzoxadiazol-5-yl)ethyl]-4-[2-(2-methoxy-4-nitrophenyl)ethyl]piperazin-2-one] | 370 |
| N#Cc1ccc(CCN2CCN(CCc3ccc4c(c3)COC4=O)CC2=O)cc1Cl [Example 36, 2-Chloro-4-(2-{2-oxo-4-[2-(1-oxo-1,3-dihydro-2-benzofuran-5-yl)ethyl]piperazin-1-yl}ethyl)benzonitrile] | 110 |
| N#Cc1ccc2c(c1)CCC(N1CCN(CCc3ccc4c(c3)COC4=O)C(=O)C1)C2 (racemic) [Example 28, 6-{3-Oxo-4-[2-(1-oxo-1,3-dihydro-2-benzofuran-5-yl)ethyl]piperazin-1-yl}-5,6,7,8-tetrahydronaphthalene-2-carbonitrile] | 410 |
| O=C1CN(CCc2ccc([N+](=O)[O-])c(F)c2)CCN1CCc1ccc([N+](=O)[O-])cc1 [Example 18, 4-[2-(3-Fluoro-4-nitrophenyl)ethyl]-1-[2-(4-nitrophenyl)ethyl]piperazin-2-one] | 40 |
| N#Cc1c(F)ccc2c1CCC2CN1CCN(CCc2ccc3c(c2)COC3=O)CC1=O (stereo not drawn) [Example 34, 5-Fluoro-1-({2-oxo-4-[2-(1-oxo-1,3-dihydro-2-benzofuran-5-yl)ethyl]piperazin-1-yl}methyl)-2,3-dihydro-1H-indene-4-carbonitrile] | 360 |
| N#Cc1ccc(CCN2CCN(CCc3ccc([N+](=O)[O-])cc3)C(=O)C2)cc1 [Example 5, 4-(2-{4-[2-(4-Nitrophenyl)ethyl]-3-oxopiperazin-1-yl}ethyl)benzonitrile] | 120 |
| N#Cc1ccc2c(c1)CC(N1CCN(CCc3ccc4c(c3)COC4=O)CC1=O)C2 (racemic) [Example 44, 2-{2-Oxo-4-[2-(1-oxo-1,3-dihydro-2-benzofuran-5-yl)ethyl]piperazin-1-yl}-2,3-dihydro-1H-indene-5-carbonitrile] | 130 |
| COC(=O)c1cc(CCN2CCN(CCc3ccc([N+](=O)[O-])cc3)C(=O)C2)ccc1[N+](=O)[O-] [Example 8, Methyl 2-nitro-5-(2-{4-[2-(4-nitrophenyl)ethyl]-3-oxopiperazin-1-yl}ethyl)benzoate] | 250 |
| O=C1CN(CCc2ccc([N+](=O)[O-])cc2)CCN1CCc1ccc2nonc2c1 [Example 24, 1-[2-(2,1,3-Benzoxadiazol-5-yl)ethyl]-4-[2-(4-nitrophenyl)ethyl]piperazin-2-one] | 550 |
| N#Cc1ccc2c(c1)CCC(N1CCN(CCc3ccc4nonc4c3)C(=O)C1)C2 (racemic) [Example 14, 6-{4-[2-(2,1,3-Benzoxadiazol-5-yl)ethyl]-3-oxopiperazin-1-yl}-5,6,7,8-tetrahydronaphthalene-2-carbonitrile] | 820 |
| COc1ccc(CCN2CCN(CCc3ccc4c(c3)COC4=O)C(=O)C2)cc1C#N [Example 32, 2-Methoxy-5-(2-{3-oxo-4-[2-(1-oxo-1,3-dihydro-2-benzofuran-5-yl)ethyl]piperazin-1-yl}ethyl)benzonitrile] | 460 |
| O=C1CN(CCc2ccc([N+](=O)[O-])cc2C(F)(F)F)CCN1CCc1ccc([N+](=O)[O-])cc1 [Example 4, 1-[2-(4-Nitrophenyl)ethyl]-4-{2-[4-nitro-2-(trifluoromethyl)phenyl]ethyl}piperazin-2-one] | 310 |
| N#Cc1ccc2c(c1)CCC2CN1CCN(CCc2ccc3c(c2)COC3=O)CC1=O (racemic) [Example 40, 1-({2-Oxo-4-[2-(1-oxo-1,3-dihydro-2-benzofuran-5-yl)ethyl]piperazin-1-yl}methyl)-2,3-dihydro-1H-indene-5-carbonitrile] | 120 |
